Measured values reported in patent publication US7070892B2, “Imaging members” (Xerox Corporation, priority 2004, dated 2006).

Test: solubility of the electron transport component (CFM derivative) in organic solvents
Type: physicochemical

Row | Structure (SMILES) | solubility of the electron transport component (solvent is butylacetate) | solubility of the electron transport component (solvent is tetrahydrofuran)
1 | CCCCC(CC)COC(=O)c1cccc2c1-c1ccccc1C2=C(C#N)C#N (stereo not shown) [R8 is 2-ethylhexyl, 9-dicyanomethylenefluorene-4-(2-ethylhexyl)carboxylate] | 25 grams/liter | 205 grams/liter
2 | CCCCOC(=O)c1cccc2c1-c1ccccc1C2=C(C#N)C#N [R8 is n-butyl, (4-n-butoxycarbonyl-9-fluorenylidene)malononitrile] | 8 grams/liter | 105 grams/liter
